Measured values published in US11033539B2, “Compounds of formulas (VII), (VIII), (IX), (XI), (XII), (XIII), and (XIV) as muscarinic receptor 4(M4) antagonists for treating neurological diseases” (Neurocrine Biosciences, Inc., priority 2015, dated 2021).
Read-outs that look alike come from different tables or passages of the source.

How the values were obtained:
[1] = biological target: human M1 receptor (Homo sapiens (Human), UniProt P11229); experiment: Radioligand (tritiated N-methylscopolamine) binding assay, M1
Chain of human M1 receptor (P11229 whole entry): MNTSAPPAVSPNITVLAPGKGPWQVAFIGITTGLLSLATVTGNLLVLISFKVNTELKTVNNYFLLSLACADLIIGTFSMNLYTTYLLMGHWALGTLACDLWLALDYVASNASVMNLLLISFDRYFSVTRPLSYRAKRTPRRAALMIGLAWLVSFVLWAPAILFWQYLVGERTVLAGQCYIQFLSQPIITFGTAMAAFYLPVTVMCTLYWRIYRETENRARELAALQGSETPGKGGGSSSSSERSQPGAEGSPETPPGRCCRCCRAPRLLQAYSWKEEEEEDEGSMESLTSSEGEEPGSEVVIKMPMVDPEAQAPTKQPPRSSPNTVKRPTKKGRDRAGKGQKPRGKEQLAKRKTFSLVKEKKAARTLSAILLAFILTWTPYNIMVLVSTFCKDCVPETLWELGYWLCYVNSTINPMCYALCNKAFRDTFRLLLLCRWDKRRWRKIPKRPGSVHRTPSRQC
Procedure: (§1) Binding affinity (Ki) of compounds was measured by inhibition of radioligand binding to membranes from CHO cells expressing human M1, M2, M3, M4 and M5 receptors. Membranes were prepared by nitrogen cavitation and differential centrifugation as previously described (Hoare et al., Mol. Pharmacol. 2003 March; 63(3): 751-65). The radioligand employed was tritiated N-methylscopolamine, used at a concentration of 1.5 nM. A dose-response of twelve concentrations of compound was used, ranging from 10 μM to […]. The assay buffer was 50 mM HEPES, 100 mM NaCl, 5 mM MgCl2, 1 mM ethylenediaminetetraacetic acid, pH-adjusted to pH 7.4. Membranes, radioligand and compound were incubated together for 90 minutes at 37° C., in a total volume of 150 μl in a 96-well plate. Receptor-bound radioligand was then collected by harvesting the assay over glass fiber filters pretreated with polyethylenimine to trap the cell membranes, using rapid vacuum filtration. Harvesting and radioactivity counting was conducted as previously described (see, e.g., Hoare et al., Mol. Pharmacol. 2003 63(3):751-65); Erratum at Mol. Pharmacol. 2005 July; 68(1): 260).

[2] = biological target: human M2 receptor (Homo sapiens (Human), UniProt P08172); experiment: Radioligand (tritiated N-methylscopolamine) binding assay, M2
Chain of human M2 receptor (P08172 whole entry): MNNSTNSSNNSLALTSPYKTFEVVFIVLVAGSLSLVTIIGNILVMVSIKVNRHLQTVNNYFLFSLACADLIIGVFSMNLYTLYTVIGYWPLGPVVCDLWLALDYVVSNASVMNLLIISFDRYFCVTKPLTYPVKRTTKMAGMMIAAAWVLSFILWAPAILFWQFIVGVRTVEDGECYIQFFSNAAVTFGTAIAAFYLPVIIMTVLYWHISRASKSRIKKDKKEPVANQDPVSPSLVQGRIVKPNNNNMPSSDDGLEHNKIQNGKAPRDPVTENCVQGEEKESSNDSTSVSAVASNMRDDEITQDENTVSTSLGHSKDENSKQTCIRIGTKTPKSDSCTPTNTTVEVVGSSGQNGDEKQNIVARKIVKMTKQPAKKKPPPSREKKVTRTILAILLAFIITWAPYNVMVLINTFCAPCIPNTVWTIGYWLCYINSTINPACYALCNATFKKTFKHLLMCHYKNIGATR
Procedure: as §1

[3] = biological target: human M3 receptor (Homo sapiens (Human), UniProt P20309); experiment: Radioligand (tritiated N-methylscopolamine) binding assay, M3; conditions: CHO cell membranes expressing human M3; 1.5 nM tritiated N-methylscopolamine; 90 min, 37° C.; read-out: Ki against M3 receptor (Table 21, M3)
Chain of human M3 receptor (P20309 whole entry): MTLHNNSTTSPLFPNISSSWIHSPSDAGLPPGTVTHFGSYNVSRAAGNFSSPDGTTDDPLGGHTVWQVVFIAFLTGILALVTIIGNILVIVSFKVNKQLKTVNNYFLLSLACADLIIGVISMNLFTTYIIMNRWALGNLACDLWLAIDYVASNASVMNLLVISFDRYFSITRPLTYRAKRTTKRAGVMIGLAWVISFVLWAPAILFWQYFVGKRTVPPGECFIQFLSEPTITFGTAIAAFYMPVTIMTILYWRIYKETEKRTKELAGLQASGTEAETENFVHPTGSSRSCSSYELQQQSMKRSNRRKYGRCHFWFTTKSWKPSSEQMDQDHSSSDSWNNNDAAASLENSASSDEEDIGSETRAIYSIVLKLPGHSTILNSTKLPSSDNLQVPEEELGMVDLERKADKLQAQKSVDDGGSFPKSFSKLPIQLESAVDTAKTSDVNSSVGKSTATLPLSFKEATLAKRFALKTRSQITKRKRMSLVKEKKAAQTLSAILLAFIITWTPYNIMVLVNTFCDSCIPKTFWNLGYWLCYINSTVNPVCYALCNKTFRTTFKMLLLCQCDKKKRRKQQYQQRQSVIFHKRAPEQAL
Procedure: as §1

[4] = biological target: human M4 receptor (Homo sapiens (Human), UniProt P08173); experiment: Radioligand (tritiated N-methylscopolamine) binding assay, M4; conditions: Ki against the M4 receptor; membranes from CHO cells expressing human M4; tritiated N-methylscopolamine 1.5 nM; read-out: Ki
Chain of human M4 receptor (P08173 whole entry): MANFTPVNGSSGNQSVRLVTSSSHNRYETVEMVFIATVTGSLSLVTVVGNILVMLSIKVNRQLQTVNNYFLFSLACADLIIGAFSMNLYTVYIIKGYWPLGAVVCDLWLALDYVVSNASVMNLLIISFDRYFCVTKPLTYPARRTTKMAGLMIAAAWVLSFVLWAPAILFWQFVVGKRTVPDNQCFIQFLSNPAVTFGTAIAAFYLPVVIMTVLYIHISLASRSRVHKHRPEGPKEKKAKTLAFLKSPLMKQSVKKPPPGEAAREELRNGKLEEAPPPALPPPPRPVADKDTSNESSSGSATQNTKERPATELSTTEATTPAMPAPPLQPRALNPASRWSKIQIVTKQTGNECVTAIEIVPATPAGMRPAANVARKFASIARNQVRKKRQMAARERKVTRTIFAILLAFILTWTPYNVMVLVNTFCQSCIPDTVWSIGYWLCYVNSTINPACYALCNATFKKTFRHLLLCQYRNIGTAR
How it was run: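 Inhibition of radioligand binding gave Ki. The assay used recombinant CHO membranes, 1.5 nM tracer, a 90 min/37 °C incubation and pH 7.4 buffer.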

[5] = biological target: human M5 receptor (Homo sapiens (Human), UniProt P08912); experiment: Radioligand (tritiated N-methylscopolamine) binding assay, M5
Chain of human M5 receptor (P08912 whole entry): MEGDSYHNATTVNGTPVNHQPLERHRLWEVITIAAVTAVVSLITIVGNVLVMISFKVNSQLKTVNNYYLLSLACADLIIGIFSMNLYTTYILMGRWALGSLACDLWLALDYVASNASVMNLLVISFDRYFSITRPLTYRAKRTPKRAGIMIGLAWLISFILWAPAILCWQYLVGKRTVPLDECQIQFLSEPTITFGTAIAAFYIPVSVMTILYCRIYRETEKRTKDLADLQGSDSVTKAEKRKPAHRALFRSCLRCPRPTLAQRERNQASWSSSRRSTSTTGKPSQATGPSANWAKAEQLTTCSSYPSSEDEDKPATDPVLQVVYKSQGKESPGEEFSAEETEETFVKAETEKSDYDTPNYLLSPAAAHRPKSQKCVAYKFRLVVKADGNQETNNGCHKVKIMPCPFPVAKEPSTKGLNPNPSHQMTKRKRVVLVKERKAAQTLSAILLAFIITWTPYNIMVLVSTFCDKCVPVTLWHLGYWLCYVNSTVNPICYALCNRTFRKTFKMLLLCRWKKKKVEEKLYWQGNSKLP
Procedure: as §1

[6] = CHO cell membranes expressing human M1, 1.5 nM tritiated N-methylscopolamine, 90 min, 37° C., read-out: Ki against M1 receptor (Table 21, M1)
[7] = CHO cell membranes expressing human M2, 1.5 nM tritiated N-methylscopolamine, 90 min, 37° C., read-out: Ki against M2 receptor (Table 21, M2)
[8] = CHO cell membranes expressing human M5, 1.5 nM tritiated N-methylscopolamine, 90 min, 37° C., read-out: Ki against M5 receptor (Table 21, M5)

Row | Structure (SMILES) | Ki [1, 6] [nM] | Ki [2, 7] [nM] | Ki [3] [nM] | Ki [4] [nM] | Ki [5, 8] [nM] | Ki [1] [nM] | Ki [2] [nM] | Ki [5] [nM]
1 | C[C@H]1CN(c2ncc(Cl)cn2)CCC1C(=O)NCCC1CCN(Cc2ccccc2)CC1 (stereo partly drawn) [20-3, (3R)-N-[2-(1-benzylpiperidin-4-yl)ethyl]-1-(5-chloropyrimidin-2-yl)-3-methylpiperidine-4-carboxamide] | 100 to 1000 | 100 to 1000 | 100 to 1000 | < 10 | > 1000 | – | – | –
2 | Cc1c(C(=O)NCCC2CCN(Cc3ccccc3)CC2)cnc2cc(-c3cc(F)c(F)c(F)c3)nn12 [18-17] | > 1000 | 100 to 1000 | > 1000 | < 10 | > 1000 | – | – | –
3 | C[C@@H]1CN(c2cc(F)c(F)c(F)c2)CCN1C(=O)NCCC1(O)CCN(Cc2ccccc2)CC1 [7-1, (2R)-N-[2-(1-benzyl-4-hydroxypiperidin-4-yl)ethyl]-2-methyl-4-(3,4,5-trifluorophenyl)piperazine-1-carboxamide] | > 1000 | > 1000 | > 1000 | < 10 | > 1000 | – | – | –
4 | CC1CN(c2ccc(OC(F)(F)F)cc2)CCC1C(=O)NCCC1CCN(Cc2ccccc2)CC1 (stereo not drawn) [10-6, N-[2-(1-benzylpiperidin-4-yl)ethyl]-3-methyl-1-[4-(trifluoromethoxy)phenyl]piperidine-4-carboxamide] | 100 to 1000 | 100 to 1000 | > 1000 | < 10 | > 1000 | – | – | –
5 | C[C@@H]1CN(c2cc(F)c(F)c(F)c2)CCN1C(=O)NCCC1CCN(Cc2cccc3c2OCC3)CC1 [6-3, (2R)-N-{2-[1-(2,3-dihydro-1-benzofuran-7-ylmethyl)piperidin-4-yl]ethyl}-2-methyl-4-(3,4,5-trifluorophenyl)piperazine-1-carboxamide] | 100 to 1000 | 10 to 100 | 100 to 1000 | < 10 | > 1000 | – | – | –
6 | C[C@@H]1CN(c2ccc(OC(F)(F)F)nc2)CCN1C(=O)NCCC1CCN(Cc2ccccc2)CC1 [3-8, (2R)-N-[2-(1-benzylpiperidin-4-yl)ethyl]-2-methyl-4-[6-(trifluoromethoxy)pyridin-3-yl]piperazine-1-carboxamide] | 100 to 1000 | 10 to 100 | 100 to 1000 | < 10 | > 1000 | – | – | –
7 | C[C@@H]1CN(c2ncc(Cl)c(N)n2)CCN1C(=O)NCCC1CCN(Cc2ccccc2)CC1 [5-32, (2R)-4-(4-amino-5-chloropyrimidin-2-yl)-N-[2-(1-benzylpiperidin-4-yl)ethyl]-2-methylpiperazine-1-carboxamide] | > 1000 | 10 to 100 | > 1000 | < 10 | > 1000 | – | – | –
8 | C[C@@H]1CN(c2cnc(C(F)(F)F)nc2)C[C@@H](C)N1C(=O)NCCC1CCN(Cc2ccccc2)CC1 [26-6] | 10 to 100 | 10 to 100 | 100 to 1000 | < 10 | 100 to 1000 | – | – | –
9 | C[C@@H]1CN(c2ccc(C#N)c(OC(F)(F)F)c2)CCN1C(=O)NCCC1CCN(Cc2ccccc2)CC1 [22-17] | 100 to 1000 | 10 to 100 | > 1000 | < 10 | 100 to 1000 | – | – | –
10 | COc1cc(N2CCN(C(=O)NCCC3CCN(Cc4ccccc4)CC3)[C@H](C)C2)cc(F)c1C#N [22-32] | 100 to 1000 | 100 to 1000 | > 1000 | < 10 | 100 to 1000 | – | – | –
11 | C[C@@H]1CN(c2ccc(C#N)c(C(F)(F)F)c2)CCN1C(=O)NCCC1CCN(Cc2ccccc2)CC1 [22-31] | – | – | > 1000 | < 10 | – | 10 to 100 | 10 to 100 | 100 to 1000
12 | C[C@@H]1CN(c2ncc(C#N)cn2)C[C@H](C)N1C(=O)NCCC1CCN(Cc2ccc(O)cc2)CC1 [6-42, (2R,6S)-4-(5-cyanopyrimidin-2-yl)-N-(2-{1-[(4-hydroxyphenyl)-methyl]piperidin-4-yl}ethyl)-2,6-dimethylpiperazine-1-carboxamide] | > 1000 | 10 to 100 | 100 to 1000 | < 10 | > 1000 | – | – | –
13 | C[C@H]1CN(C(=O)NCCC2CCN(Cc3ccccc3)CC2)CCN1c1cc(F)c(F)c(F)c1 [4-71, (3S)-N-[2-(1-benzylpiperidin-4-yl)ethyl]-3-methyl-4-(3,4,5-trifluorophenyl)piperazine-1-carboxamide] | 100 to 1000 | 100 to 1000 | > 1000 | < 10 | > 1000 | – | – | –
14 | C[C@@H]1CN(c2ncc(C#N)c(N)n2)C[C@H](C)N1C(=O)NCCC1CCN(Cc2ccccc2)CC1 [4-54, (2S,6R)-4-(4-amino-5-cyanopyrimidin-2-yl)-N-[2-(1-benzylpiperidin-4-yl)ethyl]-2,6-dimethylpiperazine-1-carboxamide] | 100 to 1000 | 100 to 1000 | > 1000 | – | > 1000 | – | – | –
15 | C[C@@H]1CN(c2ncc(C#N)cn2)C[C@H](C)N1C(=O)NCCC1CCN(Cc2ccccc2)CC1 [21-15, (2R,6S)-4-(5-cyanopyrimidin-2-yl)-2,6-dimethyl-N-(2-{1-[α,α-^2H-benzyl]piperidin-4-yl}ethyl)piperazine-1-carboxamide] | > 1000 | – | > 1000 | < 10 | > 1000 | – | – | –
16 | C[C@@H]1CN(c2ncc(C#N)cn2)C[C@H](C)N1C(=O)NCCC1CCN(Cc2ccccc2)CC1 [21-2, (2R,6S)-4-(5-cyanopyrimidin-2-yl)-2,6-dimethyl-N-(2-{1-[α,α-^2H-benzyl]piperidin-4-yl}ethyl)piperazine-1-carboxamide] | > 1000 | – | > 1000 | < 10 | > 1000 | – | – | –

The next lines start with results.

Row | Ki [1, 6] [nM] | Ki [2, 7] [nM] | Ki [3] [nM] | Ki [4] [nM] | Ki [5, 8] [nM] | Structure (SMILES) | Ki [1] [nM] | Ki [2] [nM] | Ki [5] [nM]
17 | > 1000 | 100 to 1000 | > 1000 | < 10 | 100 to 1000 | C[C@@H]1CN(C(=O)NCCC2CCN(Cc3ccccc3)CC2)CCN1c1ccc(OC(F)(F)F)c(F)c1 [4-22, (3R)-N-[2-(1-benzylpiperidin-4-yl)ethyl]-4-[3-fluoro-4-(trifluoromethoxy)phenyl]-3-methylpiperazine-1-carboxamide] | – | – | –
18 | > 1000 | 100 to 1000 | > 1000 | < 10 | > 1000 | O=C(NCCC1CCN(Cc2ccccc2)CC1)C1CCN(c2cc(F)cc(F)c2)CC1 [10-22, N-[2-(1-benzylpiperidin-4-yl)ethyl]-1-(3,5-difluorophenyl)piperidine-4-carboxamide] | – | – | –
19 | 100 to 1000 | 100 to 1000 | 100 to 1000 | < 10 | 100 to 1000 | O=C(NCCC1CCN(Cc2ccccc2)CC1)N1CCC(c2ccc(C(F)(F)F)cc2)CC1 [8-1, N-[2-(1-benzylpiperidin-4-yl)ethyl]-4-[4-(trifluoromethyl)phenyl]piperidine-1-carboxamide] | – | – | –
20 | 100 to 1000 | 10 to 100 | 100 to 1000 | < 10 | > 1000 | C[C@@H]1CN(c2ncc(C(F)(F)F)cc2F)CCN1C(=O)NCCC1CCN(Cc2ccccc2)CC1 [3-10, (2R)-N-[2-(1-benzylpiperidin-4-yl)ethyl]-4-[3-fluoro-5-(trifluoromethyl)pyridin-2-yl]-2-methylpiperazine-1-carboxamide] | – | – | –
21 | > 1000 | > 1000 | > 1000 | < 10 | > 1000 | N#Cc1cc(N2CCC(C(=O)NC[C@@H](O)C3CCN(Cc4ccccc4)CC3)CC2)ccc1F [10-58, N-[(2S)-2-(1-benzylpiperidin-4-yl)-2-hydroxyethyl]-1-(3-cyano-4-fluorophenyl)piperidine-4-carboxamide] | – | – | –
22 | > 1000 | 100 to 1000 | > 1000 | < 10 | > 1000 | O=C(NCCC1CCN(Cc2ccccc2)CC1)N1CCN(c2ccc(C(F)(F)F)cc2)CC1 [4-76, N-[2-(1-benzylpiperidin-4-yl)ethyl]-4-[4-(trifluoromethyl)phenyl]piperazine-1-carboxamide] | – | – | –
23 | > 1000 | 100 to 1000 | > 1000 | < 10 | > 1000 | C[C@@H]1CN(c2cc(F)c(C#N)cc2F)CCN1C(=O)NCCC1CCN(Cc2ccccc2)CC1 [22-10] | – | – | –
24 | > 1000 | 100 to 1000 | > 1000 | < 10 | > 1000 | Cc1c(C(=O)NC[C@H](O)C2CCN(Cc3ccccc3)CC2)cnc2cc(-c3cccc(C(F)(F)F)c3)nn12 [17-6, N-[(2R)-2-(1-benzylpiperidin-4-yl)-2-hydroxyethyl]-7-methyl-2-[3-(trifluoromethyl)phenyl]pyrazolo[1,5-a]pyrimidine-6-carboxamide] | – | – | –
